Key:
[1] = molecular target: T1, CobW (Rhodobacter capsulatus, UniProt D5AV10); assay: Co(II) titration UV-vis at […] nm and gel filtration/ICP-MS; assay type: binding; details: 10 mM HEPES pH 7.0, 100 mM NaCl, 400 mM KCl, anaerobic, with or without Mg(II) 2.7 mM, indirect read-out, no nucleotide constant
T1 construct: full length, untagged (natural His-rich region), initiator Met cleaved; E. coli BL21(DE3) pLysS; six cysteines
T1 sequence (D5AV10 2-348): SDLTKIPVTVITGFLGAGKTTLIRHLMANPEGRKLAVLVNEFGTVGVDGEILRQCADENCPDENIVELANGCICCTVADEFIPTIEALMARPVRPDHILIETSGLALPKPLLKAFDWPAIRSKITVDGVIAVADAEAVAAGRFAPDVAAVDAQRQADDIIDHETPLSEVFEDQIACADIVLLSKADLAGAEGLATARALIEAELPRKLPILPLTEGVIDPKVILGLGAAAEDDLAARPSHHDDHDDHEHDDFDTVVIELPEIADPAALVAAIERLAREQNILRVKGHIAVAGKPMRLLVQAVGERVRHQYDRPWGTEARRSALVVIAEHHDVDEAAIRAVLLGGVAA

[2] = molecular target: T1, CobW; assay: Co(II) titration UV-vis, nucleotide-induced metal site at […] nm; assay type: binding; details: 10 mM HEPES pH 7.0, 100 mM NaCl, 400 mM KCl, anaerobic, indirect read-out, no nucleotide constant
[3] = molecular target: T1, CobW; assay: GTP hydrolysis by anion-exchange chromatography, […] nm; assay type: biochemical; details: 20 uM CobW, 200 uM GTP, 2.7 mM Mg(II), 18 uM Co(II), HEPES pH 7.0, anaerobic; slow turnover

Compound: Nc1nc2c(ncn2[C@@H]2O[C@H](COP(=O)(O)OP(=O)(O)NP(=O)(O)O)[C@@H](O)[C@H]2O)c(=O)[nH]1 [GMPPNP]
- Co(II) titration UV-vis at 339 nm and gel filtration/ICP-MS [1]: binding of guanine nucleotides to CobW promotes tight coordination of two metal ions

Compound: Nc1nc2c(ncn2[C@@H]2O[C@H](COP(=O)(O)OP(=O)(O)O)[C@@H](O)[C@H]2O)c(=O)[nH]1 [GDP]
- Co(II) titration UV-vis, nucleotide-induced metal site at 339 nm ([2]; Mg(II) 2.7 mM): Mg^IIGDP-CobW, despite displaying identical absorbance features indicating the persistence of the cysteine-rich tetrahedral site

Compound: Nc1nc2c(ncn2[C@@H]2O[C@H](COP(=O)(O)OP(=O)(O)OP(=O)(O)O)[C@@H](O)[C@H]2O)c(=O)[nH]1 [GTP]
- GTP hydrolysis by anion-exchange chromatography, 254 nm [3]: CobW-catalysed GTP hydrolysis is sufficiently slow such that nucleotides remain predominantly unhydrolysed
- Co(II) titration UV-vis, nucleotide-induced metal site at 339 nm ([2]; Mg(II) 2.7 mM): binding of Mg^II and guanine nucleotides preassembles one distinct Co^II site in CobW

Compound: Nc1nc2c(ncn2[C@@H]2O[C@H](COP(=O)(O)OP(=O)(O)OP(O)(O)=S)[C@@H](O)[C@H]2O)c(=O)[nH]1 [GTPγS]
- Co(II) titration UV-vis, nucleotide-induced metal site at 339 nm ([2]; with or without Mg(II) 2.7 mM): Equivalent experiments performed with GTP and an alternate stable analogue, GTPγS, generated indistinguishable spectra

— PMC7895991, “Calculating metalation in cells reveals CobW acquires Co^II for vitamin B12 biosynthesis while related proteins prefer Zn^II” (Nature Communications, 2021)
